Assay results reported in article PMC11280343, “Rubus urticifolius Compounds with Antioxidant Activity, and Inhibition Potential against Tyrosinase, Melanin, Hyaluronidase, Elastase, and Collagenase” (Pharmaceuticals, 2024).
Where two headings read alike, the source gives them in different places.

Key:
Nrf2 [1] = test: Nrf2 activation assay, THP-1; format: cell-based
Description: (§1) To determine the antioxidant response of the samples (at the same concentration as in the viability assay), Nrf2 activation assay was used, following the protocol carried out by Apaza Ticona et al.. Cells were cultured in 96-well plates (1 × 10^6 cells/well). […] Absorbance was measured at 540 nm using a microplate reader.

HEK001 cell line = test: NR viability assay, HEK001; format: cell-based, Homo sapiens; settings: HEK001, NR assay, 72 h
Description: (§2) The HEK001 (Homo sapiens cutaneous keratinocyte, CCL-2404), WS1 (Homo sapiens cutaneous fibroblast, CRL-1502), HMCB (Homo sapiens cutaneous melanoma, CRL-9607), and THP-1 (Homo sapiens peripheral blood monocyte, TIB-202) cell lines used in this study were obtained from the American Type Culture Collection (ATCC, Manassas, VA, USA). Cultivated in a Roswell Park Memorial Institute (RPMI) 1640 medium (RPMI 1640 Merck, Cat. No. R7755, New York, NY, USA) supplemented with 2 mM L-glutamine (≥99% Merck, Cat. No. 56-85-9), 10% fetal bovine serum (FBS Merck, Cat. No. TMS-016, St. Louis, MO, USA), and 10,000 units of penicillin and 10 mg streptomycin/mL (Merck, Cat. No. P4333, St. Louis, MO, USA) in culture flasks, the cells were maintained in an incubator under normoxic conditions (20–21% O2) and a humidified atmosphere (5% CO2 at 37 °C).
(§3) Mother solutions of samples (extracts, fractions, and compounds) were prepared at a concentration of […] using dimethyl sulfoxide (DMSO ≥ 99.9% Merck, Cat. No. 67-68-5, St. Louis, MO, USA) as the solvent. From these mother solutions, dilutions were prepared at concentrations ranging from 100 to 0.20 μg/mL or μM in culture medium containing 0.5% DMSO. Additionally, a negative control group consisting solely of culture medium with 0.5% DMSO was included to assess its potential cytotoxic effect on the cells.
(§4) Cell viability was evaluated using a colorimetric assay in 96-well plates, employing 3-amino-7-dimethylamino-2-methylphenazine hydrochloride salt reagent (NR, Merck, Cat. No. 553-24-2, St. Louis, MO, USA).
(§5) HEK001, WS1, HMCB, and THP-1 cell lines were cultured in 96-well plates at 37 °C with 5% CO2 until > 90% confluency was achieved (1 × 10^6 cells/well). Subsequently, the cultures were treated with sample dilutions (100–0.20 μg/mL or μM) for 72 h at 37 °C with 5% CO2 in phenol red-free RPMI. The supernatant was then discarded and the cells were washed with phosphate-buffered saline (PBS) before being incubated with […] NR (50 μg/mL; 173 μM) for 3 h at 37 °C with 5% CO2. NR labelling was performed after DMSO treatment. After incubation, the labelled sample dilutions were rapidly washed with a fixative solution composed of 1% calcium chloride (CaCl2 Merck, Cat. No. 10043-52-4, St. Louis, MO, USA) and 0.5% formaldehyde solution (≥36.0% in H2O Merck, Cat. No. 50-00-0, St. Louis, MO, USA), then diluted with 100 μL of the NR extraction solution. Finally, the plates were read at 540 nm using a microplate reader (Anthos 2020, version 2.0.5, Biochrom Ltd., Cambridge, UK).

THP-1 cell line = test: NR viability assay, THP-1; format: cell-based, Homo sapiens; settings: 72 h
Description: as §2, §3, §4, §5

[2] = NR viability assay, THP-1; format: cell-based, Homo sapiens; settings: human
Description: as §2, §3, §4, §5

[3] = system: melanin production in HMCB cells; test: Melanin content assay; format: cell-based; settings: Homo sapiens, 12 h
Description: as §1, with “anti-melanogenic activity” for “antioxidant response”, “melanin inhibition” for “Nrf2 activation”, “HMCB cells” for “Cells”, “405” for “540”

collagenase = test: Collagenase inhibitory assay; format: biochemical; settings: for Collagenase Inhibition (%): inhibition percentage 'at an IC50', concentration not otherwise stated; for IC50: read-out: Anti-Collagenase IC50
Description: A fixed weight of 1 mg of azo dye-impregnated collagen was measured in the test tubes. Subsequently, 800 μL of 0.1 M Tris-HCl (pH 7) and 100 μL of the samples at the same concentrations used as in the viability assay were added to each test tube. Next, 100 μL of collagenase (200 units/mL) was immediately mixed into the mixture and the tubes were incubated at 43 °C for 1 h. After incubation, the test tubes were centrifuged at 3000 rpm for 10 min. The supernatant from each tube was transferred into 96-well plates and the absorbance of each supernatant was measured at 550 nm using a microplate reader.

NF-κB = NF-κB inhibition assay (LPS-stimulated), THP-1; format: cell-based; settings: Homo sapiens, read-out: NF-κB Inhibition at 72 h IC50 ± SEM
Description: as §1, with “anti-inflammatory activity” for “antioxidant response”, “NF-κB inhibition” for “Nrf2 activation”, “450” for “540”

Nrf2 [4] = test: Nrf2 activation assay, HMCB; format: cell-based; settings: Homo sapiens, 72 h, read-out: Activation of Nrf2 production EC50
Description: as §1

HMCB cell line = test: NR viability assay, HMCB; format: cell-based, Homo sapiens; settings: HMCB, NR assay, 72 h
Description: as §2, §3, §4, §5

NR viability assay, WS1 = format: cell-based, Homo sapiens; settings: human
Description: as §2, §3, §4, §5

WS1 cell line = test: NR viability assay, WS1; format: cell-based, Homo sapiens; settings: WS1, NR assay, 72 h
Description: as §2, §3, §4, §5

Nrf2 [5] = test: Nrf2 activation assay, HEK001; format: cell-based
Description: as §1

[6] = Homo sapiens, THP-1, 72 h; read-out: Activation of Nrf2 production EC50
[7] = HMCB cells, read-out: Inhibitory activity of melanin production IC50
[8] = Homo sapiens, HEK001, 72 h; read-out: Activation of Nrf2 production EC50

Row | Structure (SMILES) | Collagenase Inhibition (%) (collagenase) | IC50 (collagenase) | EC50 (Nrf2 [4]) | EC50 (Nrf2 [1]; [6]) | IC50 [3, 7] | IC50 (NF-κB; THP-1, LPS-stimulated, 72 h) | EC50 (Nrf2 [5]; [8]) | further results
1 | N#C/C(=C\c1ccc(O)cc1)C(=O)O [Compound 3, (E)-2-cyano-3-(4-hydroxyphenyl)acrylic acid] | 7.73 ± 1.21% | 187 ± 2.61 µM | 1.02 µM | – | – | – | – | EC50 (Nrf2 [1]; Homo sapiens, THP-1, 72 h, read-out: Activation of Nrf2 production EC50): 0.707 µM; CC50 (HEK001 cell line): > 100 µM; CC50 (THP-1 cell line; THP-1, NR assay, read-out: Viability CC50): > 100 µM; CC50 at 72 h ([2]; THP-1, NR assay, 72 h, read-out: Viability CC50): 141 µM; IC50 ([3]; HMCB, read-out: Inhibitory activity of melanin production IC50, HMCB cells, 12 h): 71.1 µM; IC50 (NF-κB; THP-1, 72 h): 58.8 ± 0.86 µM; CC50 (HMCB cell line): 98.6 µM; CC50 at 72 h (NR viability assay, WS1; WS1, NR assay, 72 h, read-out: Viability CC50): 107 µM; CC50 (WS1 cell line): > 100 µM; EC50 (Nrf2 [5]; Homo sapiens, HEK001, 72 h, read-out: Activation of Nrf2 production EC50): 0.951 µM
2 | O=C(O)c1cc(O)c2ccccc2n1 [Compound 2, 4-hydroxyquinoline-2-carboxylic acid] | 24.87 ± 1.34% | 152 ± 3.73 µM | 0.506 µM | 0.49 µM | 44.7 µM | 37.2 ± 0.72 µM | 0.32 µM | CC50 (THP-1 cell line; human): > 100 µM; CC50 at 72 h ([2]; Viability CC50): 100 µM; CC50 at 72 h (NR viability assay, WS1): 89.9 µM
3 | CNC(=O)c1ccccc1NC(=O)/C=C/c1ccc(OC)c(OC)c1 [Compound 1, (E)-2-(3-(3,4-dimethoxyphenyl)acrylamido)-N-methylbenzamide] | 62.24 ± 1.42% | 76.6 ± 1.31 µM | 0.385 µM | 0.116 µM | 22.2 µM | 12.7 ± 0.34 µM | 0.202 µM | CC50 at 72 h ([2]; THP-1 cells (peripheral blood monocytes), THP-1, NR assay, 72 h, read-out: Viability CC50): 80 µM; CC50 at 72 h (NR viability assay, WS1; WS1 cells (cutaneous fibroblasts), WS1, NR assay, 72 h, read-out: Viability CC50): 73 µM
